In PubChem BioAssay (NCI):
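The compound was tested at five concentrations on cells cultured in 96-well plates, with a 48-hour exposure period. At the TGI there is no net growth.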

Tests used:
Assay in all cases: growth of human tumour cells (NCI), 48 h
SNB-75 CNS = test system: SNB-75 CNS
LXFL 529 NSCLC = test system: LXFL 529 NSCLC
OVCAR-5 ovarian = test system: OVCAR-5 ovarian
HCT-15 colon = test system: HCT-15 colon
SNB-19 CNS = test system: SNB-19 CNS
K-562 leukemia = test system: K-562 leukemia
TK-10 renal = test system: TK-10 renal
HCT-116 colon = test system: HCT-116 colon
COLO 205 colon = test system: COLO 205 colon
RPMI-8226 leukemia = test system: RPMI-8226 leukemia
SF-539 CNS = test system: SF-539 CNS
OVCAR-3 ovarian = test system: OVCAR-3 ovarian
IGROV1 ovarian = test system: IGROV1 ovarian
SR leukemia = test system: SR leukemia
SN12C renal = test system: SN12C renal
PC-3 prostate = test system: PC-3 prostate
NCI/ADR-RES ovarian = test system: NCI/ADR-RES ovarian
HS 578T breast = test system: HS 578T breast
MDA-MB-231 breast = test system: MDA-MB-231 breast
MCF7 breast = test system: MCF7 breast

| SMILES | TGI (SNB-75 CNS) [µM] | TGI (LXFL 529 NSCLC) [µM] | TGI (OVCAR-5 ovarian) [µM] | TGI (HCT-15 colon) [µM] | TGI (SNB-19 CNS) [µM] | TGI (K-562 leukemia) [µM] | TGI (TK-10 renal) [µM] | TGI (HCT-116 colon) [µM] | TGI (COLO 205 colon) [µM] | TGI (RPMI-8226 leukemia) [µM] | TGI (SF-539 CNS) [µM] | TGI (OVCAR-3 ovarian) [µM] | TGI (IGROV1 ovarian) [µM] | TGI (SR leukemia) [µM] | TGI (SN12C renal) [µM] | TGI (PC-3 prostate) [µM] | TGI (NCI/ADR-RES ovarian) [µM] | TGI (HS 578T breast) [µM] | TGI (MDA-MB-231 breast) [µM] | TGI (MCF7 breast) [µM] |
| --- | --- | --- | --- | --- | --- | --- | --- | --- | --- | --- | --- | --- | --- | --- | --- | --- | --- | --- | --- | --- |
| COC(=O)C1CCc2c1c(=O)n1c([nH]c3ccccc31)c2C#N (centres undefined) | > 100 | > 100 | > 100 | > 100 | > 100 | > 100 | > 100 | > 100 | > 100 | > 100 | > 100 | > 100 | > 100 |  |  |  |  |  |  |  |
| CC(C)OP(=O)(OC(C)C)/C(Cl)=N/Nc1ccc([N+](=O)[O-])cc1 | > 100 | > 100 | > 100 | > 100 | > 100 | > 100 | > 100 | > 100 | > 100 | > 100 | > 100 | > 100 |  | > 100 | > 100 |  |  |  |  |  |
| COc1ccc(C2=C(Cl)c3cc(OC)c(OC)cc3C2OC)cc1OC (centres undefined) | > 100 | > 100 | > 100 | > 100 | > 100 | 52.7 | > 100 | > 100 | > 100 | > 100 | > 100 |  | > 100 |  | > 100 |  |  |  |  |  |
| O=C(c1ccccc1)c1c(CC(O)c2ccccn2)n(C(=O)c2ccccc2)c2ccccc12 (centres undefined) | 43.3 | > 100 | 52.7 | 88.1 | > 100 | > 100 | > 100 | 27.8 | 50.5 | 56 | 31.5 | 68.4 | > 100 | 50 |  |  |  |  |  |  |
| Nc1nc2c3nc(Nc4ccccc4)sc3nc(=S)n2c2sc(Nc3ccccc3)nc12 | > 100 | 29.4 |  | > 100 | > 100 | > 100 |  | > 100 | > 100 |  | > 100 |  | > 100 | > 100 | > 100 |  |  |  |  |  |
| COP(=O)(OC)C(=O)N1N(c2ccc([N+](=O)[O-])cc2)C(=O)C(C)NC1(NNc1ccc([N+](=O)[O-])cc1)P(=O)(OC)OC (centres undefined) | > 100 | > 100 | > 100 | > 100 | > 100 | > 100 | > 100 | > 100 | > 100 | > 100 | > 100 | > 100 | > 100 | > 100 | > 100 |  |  |  |  |  |
| CCN(CC)c1cccc2c1/C(=N/O)CCCC2 | > 100 | > 100 |  | > 100 | > 100 | > 100 | > 100 | > 100 | > 100 | > 100 |  |  |  | > 100 | > 100 |  |  |  |  |  |
| CCN(CC)C(=O)Cc1c(C(=O)N(CC)CC)c(=O)nc2sccn12 | > 100 | > 100 |  | > 100 | > 100 | > 100 | > 100 | > 100 | > 100 | > 100 | > 100 | > 100 | > 100 | > 100 | > 100 |  |  |  |  |  |
| CC(C)OC(=O)c1ccc(CCC2=CC(=O)C=CC2=O)cc1 | 62.5 |  | 29.4 | 25.1 | 56.8 | > 37.1 | 22.4 | 27 | 22.1 | 24.2 | 17.1 | 17 | 27.5 | > 25.3 | 26.5 | 26.1 | 22.1 | 50 | 23.2 | 47.7 |
